Structures can show the parent of a compound that is named as a salt.
What was measured:
[1] = biological target: T1, recombinant human 5-HT6 receptor (Homo sapiens, UniProt P50406); assay: Radioligand binding studies: competition for [3H]LSD binding in membranes of HEK293 cells expressing the receptor; conditions: [3H]LSD (5 nM), HEK293 cell membranes, 60 min at 37° C., pH 7.4; read-out: pKi for 5-HT6 (converted)
T1 construct: expressed in transfected cells
Method: The binding activity of compounds of this invention in vitro was determined as follows. Duplicate determinations of ligand affinity are made by competing for binding of [^3H]LSD in cell membranes derived from HEK293 cells stably expressing recombinant human 5-HT6 receptor. This cell line was prepared by the method described by Monsma et al., Molecular Pharmacology, Vol. 43 pp. 320-327 (1993).
All determinations were made in assay buffer containing 50 mM Tris-HCl, 10 mM MgSO4, 0.5 mM EDTA, 1 mM ascorbic acid, pH 7.4 at 37° C., in a 250 microliter reaction volume. Assay tubes containing [^3H] LSD (5 nM), competing ligand, and membrane were incubated in a shaking water bath for 60 min. at 37° C., filtered onto Packard GF-B plates (pre-soaked with 0.3% PEI) using a Packard 96 well cell harvester and washed 3 times in ice cold 50 mM Tris-HCl. Bound [^3H] LSD was determined as radioactive counts per minute using Packard TopCount.
Displacement of [^3H]LSD from the binding sites was quantified by fitting concentration-binding data to a 4-parameter logistic equation:
[formula] where Hill is the Hill slope, [ligand] is the concentration of competing radioligand and IC50 is the concentration of radioligand producing half-maximal specific binding of radioligand. The specific binding window is the difference between the Bmax and the basal parameters.

T1 sequence (P50406 whole entry): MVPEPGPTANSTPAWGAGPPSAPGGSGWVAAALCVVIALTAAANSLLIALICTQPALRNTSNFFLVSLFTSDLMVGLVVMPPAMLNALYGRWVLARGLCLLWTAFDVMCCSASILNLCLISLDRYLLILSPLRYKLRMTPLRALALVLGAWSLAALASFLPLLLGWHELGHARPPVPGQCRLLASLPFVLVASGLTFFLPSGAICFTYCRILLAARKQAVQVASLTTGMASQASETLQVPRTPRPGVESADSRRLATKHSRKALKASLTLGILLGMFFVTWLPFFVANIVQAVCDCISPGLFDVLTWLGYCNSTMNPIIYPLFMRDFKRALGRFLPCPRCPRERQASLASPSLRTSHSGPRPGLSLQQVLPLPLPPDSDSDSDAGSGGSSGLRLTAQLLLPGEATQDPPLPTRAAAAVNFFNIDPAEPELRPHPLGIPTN

| Compound | Ki [1] [nM] | melting point [°C] |
| --- | --- | --- |
| COc1cc(CN2C(=O)CCc3ccccc32)cc(N2CCNCC2)c1 [Compound 4, 1-(3-Methoxy-5-piperazin-1-yl-benzyl)-3,4-dihydro-1H-quinolin-2-one] | ~1 |  |
| O=C1CCCc2ccccc2N1Cc1cccc(N2CCNCC2)c1 (as salt: maleate) [Compound 17, 1-(3-Piperazin-1-yl-benzyl)-1,3,4,5-tetrahydrobenzo[b]azepin-2-one] |  | 149 to 150 |

Reference: patent US7476675B2, “Quinolinone derivatives and uses thereof” (Roche Palo Alto LLC, priority 2003, dated 2009)
